Laboratory results as given in patent publication US20060069132A1, “Azolecarboxamide herbicides” (priority 2004, published 2006).

How the values were obtained:
[1] = tested on: barnyardgrass; test: Test B pre-/postemergence herbicide test; type: in vivo, Echinochloa crus-galli; settings: for Plant response rating (0 to 100 scale), Barnyardgrass: 0 is no effect, 100 is complete control, preemergence; for Barnyardgrass plant response rating: Postemergence, scale 0 (no effect) to 100 (complete control)
How it was run: (§1)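 Species tested were Echinochloa crus-galli, Ipomoea coccinea, Xanthium strumarium and Oryza sativa, treated both before emergence and at the 1- to 4-leaf stage; rice and barnyardgrass were also tested under flooding at 2 leaves. Greenhouse incubation lasted 13–15 days before visual 0–100 scoring.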

[2] = tested on: Surinam grass; test: Test B pre-/postemergence herbicide test; type: in vivo, Urochloa decumbens; settings: for Plant response rating (0 to 100 scale), Surinam Grass: 0 is no effect, 100 is complete control, preemergence
How it was run: (§2)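 Response was scored visually 13 to 15 days after treatment against untreated greenhouse controls, 0 meaning no effect and 100 complete control. Formulations (solvent mixture plus surfactant) went onto soil after planting, onto foliage of 1- to 4-leaf plants, and onto 2-leaf plants in a flooded paddy set including rice and barnyardgrass.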

[3] = tested on: cocklebur; test: Test B pre-/postemergence herbicide test; type: in vivo, Xanthium strumarium; settings: for Plant response rating (0 to 100 scale), Cocklebur: 0 is no effect, 100 is complete control, preemergence
How it was run: as §1

[4] = tested on: corn; test: Test B pre-/postemergence herbicide test; type: in vivo, Zea mays; settings: for Plant response rating (0 to 100 scale), Corn: 0 is no effect, 100 is complete control, preemergence
How it was run: as §2

[5] = tested on: large crabgrass; test: Test B pre-/postemergence herbicide test; type: in vivo, Digitaria sanguinalis; settings: for Plant response rating (0 to 100 scale), Crabgrass, Large: 0 is no effect, 100 is complete control, preemergence
How it was run: as §2

[6] = tested on: giant foxtail; test: Test B pre-/postemergence herbicide test; type: in vivo, Setaria faberi; settings: for Plant response rating (0 to 100 scale), Foxtail, Giant: 0 is no effect, 100 is complete control, preemergence
How it was run: as §2

[7] = tested on: lambsquarters; test: Test B pre-/postemergence herbicide test; type: in vivo, Chenopodium album; settings: for Plant response rating (0 to 100 scale), Lambsquarters: 0 is no effect, 100 is complete control, preemergence
How it was run: as §2

[8] = tested on: morningglory; test: Test B pre-/postemergence herbicide test; type: in vivo, Ipomoea coccinea; settings: for Plant response rating (0 to 100 scale), Morningglory: 0 is no effect, 100 is complete control, preemergence
How it was run: as §1

[9] = tested on: pigweed; test: Test B pre-/postemergence herbicide test; type: in vivo, Amaranthus retroflexus; settings: for Plant response rating (0 to 100 scale), Pigweed: 0 is no effect, 100 is complete control, preemergence
How it was run: as §2

[10] = tested on: velvetleaf; test: Test B pre-/postemergence herbicide test; type: in vivo, Abutilon theophrasti; settings: for Plant response rating (0 to 100 scale), Velvetleaf: 0 is no effect, 100 is complete control, preemergence
How it was run: as §2

[11] = tested on: blackgrass; test: Test B postemergence herbicide test; type: in vivo, Alopecurus myosuroides
How it was run: (§3)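 Plants grow to 1- to 4-leaf stage (2–18 cm) for postemergence spraying, or to 2-leaf stage for the paddy test. Formulated compound is applied. Greenhouse holding lasts 13–15 days. Response is scored visually relative to controls, 0 no effect to 100 complete control; a dash means no result.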

[12] = tested on: wheat; test: Test B postemergence herbicide test; type: in vivo, Triticum aestivum; parameters: key to Wheat plant response rating: 0 = no effect, 100 = complete control
How it was run: as §3

[13] = tested on: wild oat; test: Test B postemergence herbicide test; type: in vivo, Avena fatua
How it was run: as §3

[14] = tested on: rice; test: Test B flooded paddy test; type: in vivo, Oryza sativa; settings: 1000 g ai/ha, scale 0 to 100 (0 no effect, 100 complete control)
How it was run: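 Postemergence plants were sprayed with formulated test chemicals at 2 to 18 cm height (1- to 4-leaf stage); paddy species were grown to the 2-leaf stage. After 13 to 15 days in a greenhouse, injury was rated visually against untreated controls on a 0–100 scale (0 = no effect, 100 = complete control).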

[15] = tested on: small flower umbrella sedge; test: Test B flooded paddy test; type: in vivo, Cyperus difformis; settings: 1000 g ai/ha, scale 0 to 100 (0 no effect, 100 complete control)
How it was run: as §3

[16] = tested on: ducksalad; test: Test B flooded paddy test; type: in vivo, Heteranthera limosa; settings: 1000 g ai/ha, scale 0 to 100 (0 no effect, 100 complete control)
How it was run: as §3

[17] = tested on: barnyardgrass; test: Test B flooded paddy test; type: in vivo, Echinochloa crus-galli; settings: 1000 g ai/ha, scale 0 to 100 (0 no effect, 100 complete control)
How it was run: as §3

[18] = Postemergence, 500 g ai/ha, scale 0 (no effect) to 100 (complete control)
[19] = postemergence, 125 g ai/ha, scale 0 to 100
[20] = 500 g ai/ha, scale 0 to 100, 0 no effect, 100 complete control, preemergence

CCNC(=O)c1cncc(NC(=O)c2nn(C(C)(C)C)nc2C)c1 [Compound 427]
40: Lambsquarters plant response rating [7, 18] | Pigweed plant response rating [9, 18]
20: Morningglory plant response rating [8, 19] | Pigweed plant response rating [9, 19] | Blackgrass plant response rating [11, 18]
10: Surinam Grass plant response rating [2, 18] | Cocklebur plant response rating [3, 18] | Cocklebur plant response rating [3, 19] | Foxtail, Giant plant response rating [6, 18] | Plant response rating (0 to 100 scale), Lambsquarters ([7]; 125 g ai/ha) | Lambsquarters plant response rating [7, 19] | Velvetleaf plant response rating [10, 19]
0: Plant response rating (0 to 100 scale), Barnyardgrass ([1]; 125 g ai/ha) | Barnyardgrass plant response rating ([1]; 125 g ai/ha) | Barnyardgrass plant response rating ([1]; 500 g ai/ha) | Plant response rating (0 to 100 scale), Surinam Grass ([2]; 125 g ai/ha) | Surinam Grass plant response rating [2, 19] | Plant response rating (0 to 100 scale), Cocklebur ([3]; 125 g ai/ha) | Plant response rating (0 to 100 scale), Corn ([4]; 125 g ai/ha) | Corn plant response rating [4, 18] | Corn plant response rating [4, 19] | Plant response rating (0 to 100 scale), Crabgrass, Large ([5]; 125 g ai/ha) | Crabgrass, Large plant response rating [5, 19] | Plant response rating (0 to 100 scale), Foxtail, Giant ([6]; 125 g ai/ha) | Foxtail, Giant plant response rating [6, 19] | Plant response rating (0 to 100 scale), Morningglory ([8]; 125 g ai/ha) | Plant response rating (0 to 100 scale), Velvetleaf ([10]; 125 g ai/ha) | Blackgrass plant response rating [11, 19] | Wheat plant response rating [12, 20] | Wheat plant response rating [12, 18] | Wheat plant response rating [12, 19] | Oat, Wild plant response rating [13, 18] | Oat, Wild plant response rating [13, 19] | Rice plant response rating [14] | Sedge, Umbrella plant response rating [15] | Ducksalad plant response rating [16] | Barnyardgrass plant response rating [17]
30: Crabgrass, Large plant response rating [5, 18] | Morningglory plant response rating [8, 18] | Plant response rating (0 to 100 scale), Pigweed ([9]; 125 g ai/ha) | Velvetleaf plant response rating [10, 18]

CCN(CC)C(=O)c1cncc(NC(=O)c2nn(C(C)(C)C)nc2C)c1 [Compound 428]
10: Barnyardgrass plant response rating ([1]; 500 g ai/ha) | Surinam Grass plant response rating [2, 19] | Cocklebur plant response rating [3, 18] | Corn plant response rating [4, 18] | Crabgrass, Large plant response rating [5, 19] | Foxtail, Giant plant response rating [6, 18] | Foxtail, Giant plant response rating [6, 19] | Lambsquarters plant response rating [7, 19] | Velvetleaf plant response rating [10, 19]
40: Lambsquarters plant response rating [7, 18]
20: Surinam Grass plant response rating [2, 18] | Crabgrass, Large plant response rating [5, 18] | Morningglory plant response rating [8, 19] | Pigweed plant response rating [9, 19] | Velvetleaf plant response rating [10, 18]
0: Plant response rating (0 to 100 scale), Barnyardgrass ([1]; 125 g ai/ha) | Barnyardgrass plant response rating ([1]; 125 g ai/ha) | Plant response rating (0 to 100 scale), Surinam Grass ([2]; 125 g ai/ha) | Plant response rating (0 to 100 scale), Cocklebur ([3]; 125 g ai/ha) | Cocklebur plant response rating [3, 19] | Plant response rating (0 to 100 scale), Corn ([4]; 125 g ai/ha) | Corn plant response rating [4, 19] | Plant response rating (0 to 100 scale), Crabgrass, Large ([5]; 125 g ai/ha) | Plant response rating (0 to 100 scale), Foxtail, Giant ([6]; 125 g ai/ha) | Plant response rating (0 to 100 scale), Lambsquarters ([7]; 125 g ai/ha) | Plant response rating (0 to 100 scale), Morningglory ([8]; 125 g ai/ha) | Plant response rating (0 to 100 scale), Velvetleaf ([10]; 125 g ai/ha) | Blackgrass plant response rating [11, 18] | Blackgrass plant response rating [11, 19] | Wheat plant response rating [12, 20] | Wheat plant response rating [12, 18] | Wheat plant response rating [12, 19] | Oat, Wild plant response rating [13, 18] | Oat, Wild plant response rating [13, 19] | Sedge, Umbrella plant response rating [15] | Ducksalad plant response rating [16] | Barnyardgrass plant response rating [17]
30: Morningglory plant response rating [8, 18] | Plant response rating (0 to 100 scale), Pigweed ([9]; 125 g ai/ha) | Pigweed plant response rating [9, 18] | Rice plant response rating [14]
